For 16 compounds, DC50 and Dmax results are on record in US20230372498A1, “PLK1 SELECTIVE DEGRADATION INDUCING COMPOUND” (UPPTHERA, priority 2020, published 2023).

Where two headings read alike, the source gives them in different places. A value given as a limit tells only on which side of the number the result lay.

As usually defined, the DC50 is the concentration giving 50% degradation. Broadly, the Dmax is the greatest extent of degradation seen.

In this assay the target is T1, PLK1 (Homo sapiens, UniProt P53350).
T1 construct: endogenous in cells; host or cells: HeLa
Kind of assay: PLK1 protein degradation in HeLa cells, Western blotting (PLK1/GAPDH ratio). In kind it is cell-based. The settings on record: 6 hours compound incubation; for DC50: measured only if the grade of Dmax is A or B; for Dmax: thymidine block and release, 10 points three-fold from 3 μM, PLK1 to GAPDH ratio. Put shortly:
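PLK1 level measured by Western blot as PLK1/GAPDH in HeLa lysates (15 μg protein per lane). Cells were blocked with 2 mM thymidine 24 h, released 4 h, and exposed 6 h to compound, 10 concentrations, 3-fold steps, top 3 μM.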

T1 sequence (P53350 whole entry): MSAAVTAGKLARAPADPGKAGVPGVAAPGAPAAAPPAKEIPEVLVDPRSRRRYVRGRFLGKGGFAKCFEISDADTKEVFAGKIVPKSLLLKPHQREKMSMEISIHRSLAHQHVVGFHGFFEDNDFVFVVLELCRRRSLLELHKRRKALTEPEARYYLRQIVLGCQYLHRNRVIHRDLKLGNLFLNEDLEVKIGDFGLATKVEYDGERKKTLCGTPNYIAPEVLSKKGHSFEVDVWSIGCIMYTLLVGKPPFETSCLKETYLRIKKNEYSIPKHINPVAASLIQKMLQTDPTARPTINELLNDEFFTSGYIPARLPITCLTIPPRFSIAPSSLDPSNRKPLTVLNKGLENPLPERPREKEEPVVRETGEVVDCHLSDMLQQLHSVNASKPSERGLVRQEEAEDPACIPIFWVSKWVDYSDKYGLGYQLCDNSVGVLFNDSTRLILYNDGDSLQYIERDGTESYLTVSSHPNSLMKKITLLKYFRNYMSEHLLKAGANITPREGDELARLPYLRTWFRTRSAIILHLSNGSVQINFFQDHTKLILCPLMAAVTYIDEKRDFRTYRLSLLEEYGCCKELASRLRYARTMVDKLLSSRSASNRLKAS

Consider `COc1cc(C(=O)NCCOCCOCCNc2cccc3c2C(=O)N(C2CCC(=O)NC2=O)C3=O)c(F)cc1Nc1ncc2c(n1)N(C1CCCC1)CC(F)(F)C(=O)N2C` (stereo not drawn) [Compound 152, 4-((9-cyclopentyl-7,7-difluoro-5-methyl-6-oxo-6,7,8,9-tetrahydro-5H-pyrimido[4,5-b][1,4]diazepin-2-yl)amino)-N-(2-(2-(2-((2-(2,6-dioxopiperidin-3-yl)-1,3-dioxoisoindolin-4-yl)amino)ethoxy)ethoxy)ethyl)-2-fluoro-5-methoxybenzamide], for which the DC50 was at most 50 nM. In addition, the Dmax (read-out: Dmax) was at least 80%.
With `COc1cc(C(=O)NC2CCN(CCCCCCCCCCCCCNc3cccc4c3C(=O)N(C3CCC(=O)NC3=O)C4=O)CC2)c(F)cc1Nc1ncc2c(n1)N(C1CCCC1)CC(F)(F)C(=O)N2C` (stereo not drawn) [Compound 16, 4-((9-cyclopentyl-7,7-difluoro-5-methyl-6-oxo-6,7,8,9-tetrahydro-5H-pyrimido[4,5-b][1,4]diazepin-2-yl)amino)-N-(1-(13-((2-(2,6-dioxopiperidin-3-yl)-1,3-dioxoisoindolin-4-yl)amino)tridecyl)piperidin-4-yl)-2-fluoro-5-methoxybenzamide], the Dmax (read-out: Dmax) is under 60%.
On to `COc1cc(C(=O)NC2CCN(CCCCCCCCNc3cccc4c3CN(C3CCC(=O)NC3=O)C4=O)CC2)c(F)cc1Nc1ncc2c(n1)N(C1CCCC1)CC(F)(F)C(=O)N2C` (stereo not drawn) [Compound 77, 4-((9-cyclopentyl-7,7-difluoro-5-methyl-6-oxo-6,7,8,9-tetrahydro-5H-pyrimido[4,5-b][1,4]diazepin-2-yl)amino)-N-(1-(8-((2-(2,6-dioxopiperidin-3-yl)-1-oxoisoindolin-4-yl)amino)octyl)piperidin-4-yl)-2-fluoro-5-methoxybenzamide], for which the DC50 is at most 500 nM. The Dmax (read-out: Dmax) fell in the range of 60 to 80%.
On to `COc1cc(C(=O)NC2CCN(CCCCCNc3cccc4c3C(=O)N(C3CCC(=O)NC3=O)C4=O)CC2)c(F)cc1Nc1ncc2c(n1)N(C1CCCC1)CC(F)(F)C(=O)N2C` (stereo not drawn) [Compound 9, 4-((9-cyclopentyl-7,7-difluoro-5-methyl-6-oxo-6,7,8,9-tetrahydro-5H-pyrimido[4,5-b][1,4]diazepin-2-yl)amino)-N-(1-(5-((2-(2,6-dioxopiperidin-3-yl)-1,3-dioxoisoindolin-4-yl)amino)pentyl)piperidin-4-yl)-2-fluoro-5-methoxybenzamide], for which the DC50 is at most 500 nM. The Dmax (read-out: Dmax) was in the range of 60 to 80%.
In the same order, the values of `CC(C)Oc1cc(C(=O)NC2CCN(CCOCCOCCNc3cccc4c3C(=O)N(C3CCC(=O)NC3=O)C4=O)CC2)c(F)cc1Nc1ncc2c(n1)N(C1CCCC1)CC(F)(F)C(=O)N2C` (stereo not drawn) [Example 91, 4-((9-cyclopentyl-7,7-difluoro-5-methyl-6-oxo-6,7,8,9-tetrahydro-5H-pyrimido[4,5-b][1,4]diazepin-2-yl)amino)-N-(1-(2-(2-(2-((2-(2,6-dioxopiperidin-3-yl)-1,3-dioxoisoindolin-4-yl)amino)ethoxy)ethoxy)ethyl)piperidin-4-yl)-2-fluoro-5-isopropoxybenzamide] are at most 500 nM and 60 to 80%.
Turning to `COc1cc(C(=O)NCCCOCCCOCCNc2cccc3c2CN(C2CCC(=O)NC2=O)C3=O)ccc1Nc1ncc2c(n1)N(C1CCCC1)CC(F)(F)C(=O)N2C` (stereo not drawn) [Example 171, 4-((9-cyclopentyl-7,7-difluoro-5-methyl-6-oxo-6,7,8,9-tetrahydro-5H-pyrimido[4,5-b][1,4]diazepin-2-yl)amino)-N-(3-(3-(2-((2-(2,6-dioxopiperidin-3-yl)-1-oxoisoindolin-4-yl)amino)ethoxy)propoxy)propyl)-3-methoxybenzamide], the Dmax (read-out: Dmax) was at least 80%.
On to `COc1cc(C(=O)NC2CCN(C(=O)CCN3CCN(c4ccc5c(c4)C(=O)N(C4CCC(=O)NC4=O)C5=O)CC3)CC2)c(F)cc1Nc1ncc2c(n1)N(C1CCCC1)CC(F)(F)C(=O)N2C` (stereo not drawn) [Compound 74, 4-((9-cyclopentyl-7,7-difluoro-5-methyl-6-oxo-6,7,8,9-tetrahydro-5H-pyrimido[4,5-b][1,4]diazepin-2-yl)amino)-N-(1-(3-(4-(2-(2,6-dioxopiperidin-3-yl)-1,3-dioxoisoindolin-5-yl)piperazin-1-yl)propanoyl)piperidin-4-yl)-2-fluoro-5-methoxybenzamide], for which the 50% degradation concentration (DC50) is at most 50 nM. For the same compound, under “read-out: Dmax”, the Dmax was at least 80%.
Turning to `COc1cc(C(=O)NCC2CCCN(CCOCCNc3cccc4c3C(=O)N(C3CCC(=O)NC3=O)C4=O)C2)c(F)cc1Nc1ncc2c(n1)N(C1CCCC1)CC(F)(F)C(=O)N2C` (stereo not drawn) [Compound 125, 4-((9-cyclopentyl-7,7-difluoro-5-methyl-6-oxo-6,7,8,9-tetrahydro-5H-pyrimido[4,5-b][1,4]diazepin-2-yl)amino)-N-((1-(2-(2-((2-(2,6-dioxopiperidin-3-yl)-1,3-dioxoisoindolin-4-yl)amino)ethoxy)ethyl)piperidin-3-yl)methyl)-2-fluoro-5-methoxybenzamide], the DC50 is at most 50 nM. Besides, the Dmax (read-out: Dmax) was at least 80%.
Turning to `COc1cc(C(=O)NC2CCN(Cc3cccc(CNC(=O)COc4cccc5c4C(=O)N(C4CCC(=O)NC4=O)C5=O)c3)CC2)c(F)cc1Nc1ncc2c(n1)N(C1CCCC1)CC(F)(F)C(=O)N2C` (stereo not drawn) [Compound 61, 4-((9-cyclopentyl-7,7-difluoro-5-methyl-6-oxo-6,7,8,9-tetrahydro-5H-pyrimido[4,5-b][1,4]diazepin-2-yl)amino)-N-(1-(3-((2-((2-(2,6-dioxopiperidin-3-yl)-1,3-dioxoisoindolin-4-yl)oxy)acetamido)methyl)benzyl)piperidin-4-yl)-2-fluoro-5-methoxybenzamide], the DC50 was at most 50 nM. Also, the Dmax (read-out: Dmax) lay in the range of 60 to 80%.
As to `COc1cc(C(=O)NCCOCCCNc2cccc3c2C(=O)N(C2CCC(=O)NC2=O)C3=O)c(F)cc1Nc1ncc2c(n1)N(C1CCCC1)CC(F)(F)C(=O)N2C` (stereo not drawn) [Compound 155, 4-((9-cyclopentyl-7,7-difluoro-5-methyl-6-oxo-6,7,8,9-tetrahydro-5H-pyrimido[4,5-b][1,4]diazepin-2-yl)amino)-N-(2-(3-((2-(2,6-dioxopiperidin-3-yl)-1,3-dioxoisoindolin-4-yl)amino)propoxy)ethyl)-2-fluoro-5-methoxybenzamide], the DC50 was at most 500 nM. Besides, the Dmax (read-out: Dmax) was 60 to 80%.
The corresponding values for `COc1cc(C(=O)NC2CCN(CC3CCN(c4cccc5c4C(=O)N(C4CCC(=O)NC4=O)C5=O)CC3)CC2)c(F)cc1Nc1ncc2c(n1)N(C1CCCC1)CC(F)(F)C(=O)N2C` (stereo not drawn) [Compound 65, 4-((9-cyclopentyl-7,7-difluoro-5-methyl-6-oxo-6,7,8,9-tetrahydro-5H-pyrimido[4,5-b][1,4]diazepin-2-yl)amino)-N-(1-((1-(2-(2,6-dioxopiperidin-3-yl)-1,3-dioxoisoindolin-4-yl)piperidin-4-yl)methyl)piperidin-4-yl)-2-fluoro-5-methoxybenzamide] are at most 50 nM and at least 80%.
In the case of `COc1cc(C(=O)NC2CCN(CCN3CCN(c4cccc5c4C(=O)N(C4CCC(=O)NC4=O)C5=O)CC3)CC2)c(F)cc1Nc1ncc2c(n1)N(C1CCCC1)CC(F)(F)C(=O)N2C` (stereo not drawn) [Compound 66, 4-((9-cyclopentyl-7,7-difluoro-5-methyl-6-oxo-6,7,8,9-tetrahydro-5H-pyrimido[4,5-b][1, 4]diazepin-2-yl)amino)-N-(1-(2-(4-(2-(2,6-dioxopiperidin-3-yl)-1,3-dioxoisoindolin-4-yl)piperazin-1-yl)ethyl)piperidin-4-yl)-2-fluoro-5-methoxybenzamide], the DC50 is at most 500 nM. In addition, for the setting “read-out: Dmax”, the Dmax was in the range of 60 to 80%.
Take `COc1cc(C(=O)NC2CCN(C(=O)COCCOCCNc3cccc4c3CN(C3CCC(=O)NC3=O)C4=O)C2)c(F)cc1Nc1ncc2c(n1)N(C1CCCC1)CC(F)(F)C(=O)N2C` (stereo not drawn) [Compound 150, 4-((9-cyclopentyl-7,7-difluoro-5-methyl-6-oxo-6,7,8,9-tetrahydro-5H-pyrimido[4,5-b][1,4]diazepin-2-yl)amino)-N-(1-(2-(2-(2-((2-(2,6-dioxopiperidin-3-yl)-1-oxoisoindolin-4-yl)amino)ethoxy)ethoxy)acetyl)pyrrolidin-3-yl)-2-fluoro-5-methoxybenzamide]: the DC50 is at most 50 nM. In addition, the Dmax (read-out: Dmax) was at least 80%.
As to `COc1cc(C(=O)NC2CCN(CCCCCCCCOCC(=O)N[C@H](C(=O)N3C[C@H](O)C[C@H]3C(=O)NCc3ccc(-c4scnc4C)cc3)C(C)(C)C)CC2)c(F)cc1Nc1ncc2c(n1)N(C1CCCC1)CC(F)(F)C(=O)N2C` [Example 84], the DC50 is at most 500 nM; the Dmax result was “B (B: Dmax is 80% or less and 60% or more)”.
`COc1cc(C(=O)NC2CCN(Cc3cn(CCOCCOCCOCCNc4cccc5c4C(=O)N(C4CCC(=O)NC4=O)C5=O)nn3)CC2)c(F)cc1Nc1ncc2c(n1)N(C1CCCC1)CC(F)(F)C(=O)N2C` (stereo not drawn) [Compound 45, 4-((9-cyclopentyl-7,7-difluoro-5-methyl-6-oxo-6,7,8,9-tetrahydro-5H-pyrimido[4,5-b][1,4]diazepin-2-yl)amino)-N-(1-((1-(2-(2-(2-(2-((2-(2,6-dioxopiperidin-3-yl)-1,3-dioxoisoindolin-4-yl)amino)ethoxy)ethoxy)ethoxy)ethyl)-1H-1,2,3-triazol-4-yl)methyl)piperidin-4-yl)-2-fluoro-5-methoxybenzamide]: the DC50 was at most 50 nM. In addition, the greatest degradation seen (Dmax) (read-out: Dmax) was at least 80%.
With `CN1C(=O)C(F)(F)CN(C2CCCC2)c2nc(Nc3cc(F)c(C(=O)NC4CCN(CCOCCOCCNc5cccc6c5C(=O)N(C5CCC(=O)NC5=O)C6=O)CC4)cc3OC3CC3)ncc21` (stereo not drawn) [Example 92, 4-((9-cyclopentyl-7,7-difluoro-5-methyl-6-oxo-6,7,8,9-tetrahydro-5H-pyrimido[4,5-b][1,4]diazepin-2-yl)amino)-5-cyclopropoxy-N-(1-(2-(2-(2-((2-(2,6-dioxopiperidin-3-yl)-1,3-dioxoisoindolin-4-yl)amino)ethoxy)ethoxy)ethyl)piperidin-4-yl)-2-fluorobenzamide], the DC50 is at most 50 nM. Further, the Dmax (read-out: Dmax) was at least 80%.
